Eight molecules from PubChem BioAssay (NCI) can be followed below.

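Dose response: 5 concentrations. Exposure: 48 h. Format: 96-well plates. Endpoint: linear interpolation; highest concentration if not reached. GI50 = concentration required for 50% inhibition of growth. TGI: total growth inhibition.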 A value given as a limit tells only on which side of the number the result lay.

Among the test systems are ACHN renal; SF-539 CNS; UACC-257 melanoma; SN12C renal; LOX IMVI melanoma; IGROV1 ovarian; NCI-H522 lung; HT29 colon; U251 CNS; TK-10 renal.
Holding throughout (assay): growth of human tumour cells (NCI), 48 h

As to `Nc1cc2nc3ccccc3oc-2cc1=O`, the GI50 in the test with ACHN renal was 12.4 µM; in the test on SF-539 CNS, 2.45 µM; with UACC-257 melanoma, 2.35 µM; with SN12C renal it was 1.46 µM; with LOX IMVI melanoma it was 0.606 µM; with IGROV1 ovarian, 2.79 µM. The GI50 is 3.45 µM with NCI-H522 lung, 2.58 µM in the test on HT29 colon, 1.73 µM with U251 CNS and 14.3 µM in the test on TK-10 renal. In addition, the TGI with ACHN renal is > 79 µM; with SF-539 CNS, 6.75 µM; in the test with UACC-257 melanoma it was 6.68 µM; in the test with SN12C renal, 2.9 µM; in the test on LOX IMVI melanoma it was 2.23 µM; in the test on IGROV1 ovarian it was 21.2 µM. Besides, the TGI in the test on NCI-H522 lung is 10.1 µM; with HT29 colon, > 21.7 µM; with U251 CNS, 12.3 µM; with TK-10 renal it was 39.7 µM.

On to `COc1ccc(-c2nnc(Nc3nc(O)c(C4=c5cc(F)ccc5=NC4=O)s3)o2)cc1`, for which the GI50 in the test with ACHN renal is 35.3 µM; with SF-539 CNS, 80.9 µM; in the test with UACC-257 melanoma it was > 100 µM; in the test with SN12C renal, 47 µM; with LOX IMVI melanoma it was 40 µM; with IGROV1 ovarian, 14.3 µM. In addition, the GI50 in the test with NCI-H522 lung is 33.9 µM; in the test with HT29 colon it was 40.5 µM; in the test on U251 CNS, 25.3 µM; with TK-10 renal, 56.3 µM. In addition, the TGI was > 100 µM in the test on ACHN renal; > 100 µM in the test on SF-539 CNS; > 100 µM in the test on UACC-257 melanoma; > 100 µM in the test with SN12C renal; > 100 µM in the test on LOX IMVI melanoma; 51.4 µM in the test with IGROV1 ovarian. Besides, the TGI with NCI-H522 lung was > 100 µM; in the test on HT29 colon, > 100 µM; with U251 CNS, 61.2 µM; with TK-10 renal, > 100 µM.

For the molecule `NC(CO)C(=O)NCC(=O)O` (centres undefined), the TGI in the test with ACHN renal, in the test on SF-539 CNS, in the test with UACC-257 melanoma, in the test on SN12C renal, in the test with LOX IMVI melanoma and with IGROV1 ovarian was > 100 µM throughout. For the same molecule, the TGI in the test with NCI-H522 lung, in the test on HT29 colon, in the test on U251 CNS and with TK-10 renal was > 100 µM in each case.

Take `COc1cc(C2C3=C(COC3=O)Nc3cc4c(cc32)OCO4)cc2c1OCO2` (centres undefined): the GI50 is 0.357 µM in the test with ACHN renal; 0.0394 µM in the test with SF-539 CNS; 0.154 µM in the test on SN12C renal; 0.0801 µM with LOX IMVI melanoma; 0.127 µM with IGROV1 ovarian; 0.0219 µM in the test with NCI-H522 lung. Moreover, the GI50 in the test with HT29 colon is 0.0722 µM; with U251 CNS it was 0.111 µM; in the test with TK-10 renal it was 0.295 µM. For the same molecule, the TGI with ACHN renal is > 100 µM; with SF-539 CNS, > 64.5 µM; with UACC-257 melanoma, > 100 µM; in the test on SN12C renal, > 100 µM; with LOX IMVI melanoma, > 100 µM; with IGROV1 ovarian, > 100 µM. Also, the TGI with NCI-H522 lung was 0.0665 µM; in the test on HT29 colon, 3.21 µM; with U251 CNS, > 100 µM; with TK-10 renal it was > 100 µM.

For the molecule `COc1cc2c(cc1O)C(c1cc(O)c(O)c(OC)c1)C(O)(C(=O)O)C(CO)C2O` (centres undefined), the TGI is > 100 µM in the test with ACHN renal; > 100 µM in the test with SF-539 CNS; > 100 µM in the test on UACC-257 melanoma; 32.6 µM in the test with SN12C renal; 33.3 µM with LOX IMVI melanoma; > 100 µM with IGROV1 ovarian. Moreover, the TGI in the test with NCI-H522 lung, with HT29 colon, in the test with U251 CNS and with TK-10 renal was > 100 µM in each case.

On to `CC(=O)c1ccc2c(c1)N(CCCN(C)C)c1ccccc1S2`, for which the GI50 was 15.5 µM in the test on ACHN renal; 13.7 µM in the test on SF-539 CNS; 18.7 µM with UACC-257 melanoma; 14.5 µM in the test with SN12C renal; 12.4 µM in the test with LOX IMVI melanoma; 18.8 µM in the test with IGROV1 ovarian. The GI50 is 16.2 µM with NCI-H522 lung, 11.2 µM in the test with HT29 colon, 15.1 µM in the test on U251 CNS and 14.7 µM in the test with TK-10 renal. The TGI with ACHN renal amounted to 30.6 µM; with SF-539 CNS, 28.2 µM; with UACC-257 melanoma it was 37.8 µM; with SN12C renal it was 30.8 µM; with LOX IMVI melanoma it was 25.4 µM; with IGROV1 ovarian it was 44 µM. In addition, the TGI came to 34.1 µM with NCI-H522 lung, 28.4 µM in the test with HT29 colon, 32.1 µM in the test with U251 CNS and 29.5 µM in the test on TK-10 renal.

On to `O=C1CCC2(c3ccccc3)Nc3ccc(Cl)cc3N12` (centres undefined), for which the TGI in the test with ACHN renal, in the test on SF-539 CNS, with UACC-257 melanoma, with SN12C renal, in the test with LOX IMVI melanoma and in the test on IGROV1 ovarian was > 100 µM throughout. For the same molecule, the TGI with NCI-H522 lung, in the test on HT29 colon, in the test on U251 CNS and in the test with TK-10 renal was > 100 µM throughout.

In the case of `Cc1cc2c(=O)cc(-c3ccc(F)cc3)oc2c(C(=O)O)c1C`, the TGI in the test on ACHN renal, in the test with SF-539 CNS, with UACC-257 melanoma, in the test on SN12C renal, in the test on LOX IMVI melanoma and in the test with IGROV1 ovarian was > 100 µM each time. The TGI with NCI-H522 lung, in the test with HT29 colon, in the test on U251 CNS and in the test on TK-10 renal was > 100 µM throughout.
